This passage reports IC50 results from US20260242419A1, “A CYCLIC PEPTIDE FOR TRAPPING INTERLEUKIN-1 BETA” (Merck Sharp & Dohme LLC, priority 2023, published 2026).

Starred links: 1 amine or outer side, 2 acyl side, 3 side chain; linkers in the order of their positions; H or OH if unused. Non-standard residues stand in square brackets, D forms with d. Residues, ends and D or L forms follow the SMILES beside them. Phe(4-(5-CO2H-2-pyrimidyl)) = N[C@@H](Cc1ccc(-c2ncc(C(=O)O)cn2)cc1)C(=O)O; dPro(4R-(4-pyridylmethyl)) = O=C(O)[C@H]1C[C@@H](Cc2ccncc2)CN1; Trp(βS-Me,4-F) = C[C@@H](c1c[nH]c2cccc(F)c12)[C@H](N)C(=O)O; X35 = O=C(O)C12CC(c3ccc(C[C@H](N[*:1])C(=O)[*:2])cc3)(C1)C2; Bip(4'-COOH) = N[C@@H](Cc1ccc(-c2ccc(C(=O)O)cc2)cc1)C(=O)O; Ala(1-bicyclo(1.1.1)pentyl) = N[C@@H](CC12CC(C1)C2)C(=O)O; X26 = O=C(O)c1ccc(-c2ncc(C[C@H](N[*:1])C(=O)[*:2])cn2)cc1; dPro(4R-Bzl(4-F)) = O=C(O)[C@H]1C[C@@H](Cc2ccc(F)cc2)CN1; Ala(pyrimidin-5-yl) = N[C@@H](Cc1cncnc1)C(=O)O; Phe(4-COOH) = N[C@@H](Cc1ccc(C(=O)O)cc1)C(=O)O; X36 = O=C(O)c1ccc(C[C@H](N[*:1])C(=O)[*:2])cn1; Pro(cis-4-F) = O=C(O)[C@@H]1C[C@H](F)CN1; AEF = NCCOc1ccc(C[C@H](N)C(=O)O)cc1; 4Pal = N[C@@H](Cc1ccncc1)C(=O)O; αMeS = C[C@](N)(CO)C(=O)O; Dab = NCC[C@H](N)C(=O)O; Dap = NC[C@H](N)C(=O)O; Aib = CC(C)(N)C(=O)O

The target in this test is T1, IL-1β (Homo sapiens, UniProt P01584).
T1 construct: purchased BioLegend 579404
T1 sequence (P01584 117-269): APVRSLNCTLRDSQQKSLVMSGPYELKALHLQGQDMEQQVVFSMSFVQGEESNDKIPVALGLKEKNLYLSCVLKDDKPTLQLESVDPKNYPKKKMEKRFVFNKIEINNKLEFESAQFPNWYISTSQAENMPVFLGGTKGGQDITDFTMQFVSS
Put plainly: IL-6 assay in MRC5 cells: inhibition of IL-1β induced IL-6 secretion (AlphaLISA). Conditions: inhibition of IL-1β induced IL-6 secretion in MRC5 cells; read-out: MRC5 IC50. Format: cell-based. The gist of the method: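 Compound was pre-incubated 1 h at ambient temperature with recombinant human IL-1β at 2λ EC80 before adding human lung fibroblast MRC5 cells (3000/well) in EMEM with 0.025% BSA. After overnight culture at 37 °C, 5% CO2, secreted IL-6 in conditioned medium was measured by AlphaLISA; IC50 from 4-parameter logistic fits.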
For orientation: In Alpha technology, singlet oxygen from a donor bead excites a nearby acceptor bead.
Consider `C[C@@H](c1c[nH]c2cccc(F)c12)[C@@H]1NC(=O)[C@@H]2C[C@H](F)CN2C(=O)CNC(=O)[C@H](Cc2ccc(C(=O)O)cc2)NC(=O)[C@H](CC23CC(C2)C3)NC(=O)[C@H](Cc2ccc(-c3ncc(C(=O)O)cn3)cc2)NC(=O)[C@H]2C[C@@H](Cc3ccc(F)cc3)CN2C(=O)CNC(=O)[C@H](CCN)NC(=O)[C@H](CCC(N)=O)NC(=O)[C@H](Cc2cncnc2)NC(=O)C(C)(C)NC(=O)[C@H](Cc2c[nH]c3ccccc23)NC(=O)[C@H](CCC(=O)O)NC(=O)C(C)(C)NC1=O` [Example 82] (cyclo([Phe(4-(5-CO2H-2-pyrimidyl))][Ala(1-bicyclo(1.1.1)pentyl)][Phe(4-COOH)]G[Pro(cis-4-F)][Trp(βS-Me,4-F)][Aib]EW[Aib][Ala(pyrimidin-5-yl)]Q[Dab]G[dPro(4R-Bzl(4-F))])), for which the IC50 is 0.054 nM. The same measure for `C[C@@H](c1c[nH]c2cccc(F)c12)[C@@H]1NC(=O)[C@@H]2C[C@H](F)CN2C(=O)CNC(=O)[C@H](Cc2ccc(C(=O)O)cc2)NC(=O)[C@H](CC23CC(C2)C3)NC(=O)[C@H](Cc2ccc(-c3ncc(C(=O)O)cn3)cc2)NC(=O)[C@H]2C[C@@H](Cc3ccc(F)cc3)CN2C(=O)CNC(=O)[C@H](CCN)NC(=O)[C@H](CCC(N)=O)NC(=O)[C@H](Cc2cncnc2)NC(=O)C(C)(C)NC(=O)[C@H](Cc2c[nH]c3ccccc23)NC(=O)[C@H](CO)NC(=O)C(C)(C)NC1=O` [Example 83] (cyclo([Phe(4-(5-CO2H-2-pyrimidyl))][Ala(1-bicyclo(1.1.1)pentyl)][Phe(4-COOH)]G[Pro(cis-4-F)][Trp(βS-Me,4-F)][Aib]SW[Aib][Ala(pyrimidin-5-yl)]Q[Dab]G[dPro(4R-Bzl(4-F))])): 0.045 nM; for `C[C@@H](c1c[nH]c2cccc(F)c12)[C@@H]1NC(=O)[C@@H]2C[C@H](F)CN2C(=O)CNC(=O)[C@H](Cc2ccc(C(=O)O)cc2)NC(=O)[C@H](CC23CC(C2)C3)NC(=O)[C@H](Cc2ccc(-c3ncc(C(=O)O)cn3)cc2)NC(=O)[C@H]2C[C@@H](Cc3ccc(F)cc3)CN2C(=O)CNC(=O)[C@H](CCN)NC(=O)[C@H](CCC(N)=O)NC(=O)[C@H](Cc2ccncc2)NC(=O)C(C)(C)NC(=O)[C@H](Cc2c[nH]c3ccccc23)NC(=O)[C@H](CO)NC(=O)C(C)(C)NC1=O` [Example 84] (cyclo([Phe(4-(5-CO2H-2-pyrimidyl))][Ala(1-bicyclo(1.1.1)pentyl)][Phe(4-COOH)]G[Pro(cis-4-F)][Trp(βS-Me,4-F)][Aib]SW[Aib][4Pal]Q[Dab]G[dPro(4R-Bzl(4-F))])): 0.047 nM.

On to `C[C@@H]1NC(=O)C(C)(C)NC(=O)[C@H]([C@@H](C)c2c[nH]c3cccc(F)c23)NC(=O)[C@@H]2C[C@H](F)CN2C(=O)CNC(=O)[C@H](Cc2ccc(C(=O)O)cc2)NC(=O)[C@H](Cc2ccncc2)NC(=O)[C@H](Cc2ccc(-c3ncc(C(=O)O)cn3)cc2)NC(=O)[C@H]2C[C@@H](Cc3ccncc3)CN2C(=O)CNC(=O)[C@H](CCN)NC(=O)[C@H](CCC(N)=O)NC(=O)[C@H](Cc2ccncc2)NC(=O)C(C)(C)NC(=O)[C@H](Cc2c[nH]c3ccccc23)NC1=O` [Example 85] (cyclo([Phe(4-(5-CO2H-2-pyrimidyl))][4Pal][Phe(4-COOH)]G[Pro(cis-4-F)][Trp(βS-Me,4-F)][Aib]AW[Aib][4Pal]Q[Dab]G[dPro(4R-(4-pyridylmethyl))])), for which the IC50 is 0.074 nM.

With `C[C@@H]1NC(=O)C(C)(C)NC(=O)[C@H]([C@@H](C)c2c[nH]c3cccc(F)c23)NC(=O)[C@@H]2C[C@H](F)CN2C(=O)CNC(=O)[C@H](Cc2ccc(C(=O)O)cc2)NC(=O)[C@H](CC23CC(C2)C3)NC(=O)[C@H](Cc2ccc(-c3ncc(C(=O)O)cn3)cc2)NC(=O)[C@H]2C[C@@H](Cc3ccncc3)CN2C(=O)CNC(=O)[C@H](CCN)NC(=O)[C@H](CCC(N)=O)NC(=O)[C@H](Cc2ccncc2)NC(=O)C(C)(C)NC(=O)[C@H](Cc2c[nH]c3ccccc23)NC1=O` [Example 88] (cyclo([Phe(4-(5-CO2H-2-pyrimidyl))][Ala(1-bicyclo(1.1.1)pentyl)][Phe(4-COOH)]G[Pro(cis-4-F)][Trp(βS-Me,4-F)][Aib]AW[Aib][4Pal]Q[Dab]G[dPro(4R-(4-pyridylmethyl))])), the IC50 stood at 0.083 nM. Turning to `C[C@@H](c1c[nH]c2cccc(F)c12)[C@@H]1NC(=O)[C@@H]2C[C@H](F)CN2C(=O)CNC(=O)[C@H](Cc2ccc(C(=O)O)cc2)NC(=O)[C@H](CC23CC(C2)C3)NC(=O)[C@H](Cc2ccc(-c3ncc(C(=O)O)cn3)cc2)NC(=O)[C@H]2C[C@@H](Cc3ccncc3)CN2C(=O)CNC(=O)[C@H](CCN)NC(=O)[C@H](CCC(N)=O)NC(=O)[C@H](Cc2ccncc2)NC(=O)C(C)(C)NC(=O)[C@H](Cc2c[nH]c3ccccc23)NC(=O)[C@H](CO)NC(=O)C(C)(C)NC1=O` [Example 89] (cyclo([Phe(4-(5-CO2H-2-pyrimidyl))][Ala(1-bicyclo(1.1.1)pentyl)][Phe(4-COOH)]G[Pro(cis-4-F)][Trp(βS-Me,4-F)][Aib]SW[Aib][4Pal]Q[Dab]G[dPro(4R-(4-pyridylmethyl))])), the half-inhibitory concentration (IC50) was found to be 0.045 nM.

Turning to `C[C@@H](c1c[nH]c2cccc(F)c12)[C@@H]1NC(=O)[C@@H]2C[C@H](F)CN2C(=O)CNC(=O)[C@H](Cc2ccc(C(=O)O)cc2)NC(=O)[C@H](Cc2ccncc2)NC(=O)[C@H](Cc2cnc(-c3ccc(C(=O)O)cc3)nc2)NC(=O)[C@H]2C[C@@H](Cc3ccc(F)cc3)CN2C(=O)CNC(=O)[C@H](CCN)NC(=O)[C@H](CCC(N)=O)NC(=O)[C@H](Cc2cncnc2)NC(=O)C(C)(C)NC(=O)[C@H](Cc2c[nH]c3ccccc23)NC(=O)[C@H](CCC(=O)O)NC(=O)C(C)(C)NC1=O` [Example 91] (cyclo([X26][4Pal][Phe(4-COOH)]G[Pro(cis-4-F)][Trp(βS-Me,4-F)][Aib]EW[Aib][Ala(pyrimidin-5-yl)]Q[Dab]G[dPro(4R-Bzl(4-F))])), the IC50 amounted to 0.054 nM.

In the case of `C[C@@H](c1c[nH]c2cccc(F)c12)[C@@H]1NC(=O)[C@@H]2C[C@H](F)CN2C(=O)CNC(=O)[C@H](Cc2ccc(C(=O)O)cc2)NC(=O)[C@H](CC23CC(C2)C3)NC(=O)[C@H](Cc2ccc(-c3ccc(C(=O)O)cc3)cc2)NC(=O)[C@H]2C[C@@H](Cc3ccncc3)CN2C(=O)CNC(=O)[C@H](CCN)NC(=O)[C@H](CCC(N)=O)NC(=O)[C@H](CN)NC(=O)C(C)(C)NC(=O)[C@H](Cc2c[nH]c3ccccc23)NC(=O)[C@H](CCC(=O)O)NC(=O)C(C)(C)NC1=O` [Example 93] (cyclo([Bip(4'-COOH)][Ala(1-bicyclo(1.1.1)pentyl)][Phe(4-COOH)]G[Pro(cis-4-F)][Trp(βS-Me,4-F)][Aib]EW[Aib][Dap]Q[Dab]G[dPro(4R-(4-pyridylmethyl))])), the IC50 was 0.059 nM. Next, `CC(=O)NCCOc1ccc(C[C@@H]2NC(=O)[C@H]3C[C@@H](Cc4ccc(F)cc4)CN3C(=O)CNC(=O)[C@H](CCN)NC(=O)[C@H](CCC(N)=O)NC(=O)[C@H](Cc3ccncc3)NC(=O)C(C)(C)NC(=O)[C@H](Cc3c[nH]c4ccccc34)NC(=O)[C@H](CCC(=O)O)NC(=O)C(C)(C)NC(=O)[C@H]([C@@H](C)c3c[nH]c4cccc(F)c34)NC(=O)[C@@H]3C[C@H](F)CN3C(=O)CNC(=O)[C@H](Cc3ccc(C(=O)O)cc3)NC(=O)[C@H](Cc3ccncc3)NC2=O)cc1` [Example 95] (cyclo([AEF](Ac)[4Pal][Phe(4-COOH)]G[Pro(cis-4-F)][Trp(βS-Me,4-F)][Aib]EW[Aib][4Pal]Q[Dab]G[dPro(4R-Bzl(4-F))])): 0.054 nM. The same measure for `C[C@@H](c1c[nH]c2cccc(F)c12)[C@@H]1NC(=O)[C@@H]2C[C@H](F)CN2C(=O)CNC(=O)[C@H](Cc2ccc(C(=O)O)cc2)NC(=O)[C@H](CC23CC(C2)C3)NC(=O)[C@H](Cc2ccc(-c3ccc(C(=O)O)cc3)cc2)NC(=O)[C@H]2C[C@@H](Cc3ccc(F)cc3)CN2C(=O)CNC(=O)[C@H](CCN)NC(=O)[C@H](CCC(N)=O)NC(=O)[C@H](CO)NC(=O)C(C)(C)NC(=O)[C@H](Cc2c[nH]c3ccccc23)NC(=O)[C@H](CO)NC(=O)[C@](C)(CO)NC1=O` [Example 97] (cyclo([Bip(4'-COOH)][Ala(1-bicyclo(1.1.1)pentyl)][Phe(4-COOH)]G[Pro(cis-4-F)][Trp(βS-Me,4-F)][αMeS]SW[Aib]SQ[Dab]G[dPro(4R-Bzl(4-F))])): 0.036 nM. With `C[C@@H](c1c[nH]c2cccc(F)c12)[C@@H]1NC(=O)[C@@H]2C[C@H](F)CN2C(=O)CNC(=O)[C@H](Cc2ccc(C(=O)O)nc2)NC(=O)[C@H](CC23CC(C2)C3)NC(=O)[C@H](Cc2ccc(-c3ccc(C(=O)O)cc3)cc2)NC(=O)[C@H]2C[C@@H](Cc3ccc(F)cc3)CN2C(=O)CNC(=O)[C@H](CCN)NC(=O)[C@H](CCC(N)=O)NC(=O)[C@H](Cc2cncnc2)NC(=O)C(C)(C)NC(=O)[C@H](Cc2c[nH]c3ccccc23)NC(=O)[C@H](CCC(=O)O)NC(=O)C(C)(C)NC1=O` [Example 98] (cyclo([Bip(4'-COOH)][Ala(1-bicyclo(1.1.1)pentyl)][X36]G[Pro(cis-4-F)][Trp(βS-Me,4-F)][Aib]EW[Aib][Ala(pyrimidin-5-yl)]Q[Dab]G[dPro(4R-Bzl(4-F))])), the IC50 was 0.058 nM.

With `C[C@@H](c1c[nH]c2cccc(F)c12)[C@@H]1NC(=O)[C@@H]2C[C@H](F)CN2C(=O)CNC(=O)[C@H](Cc2ccc(C(=O)O)cc2)NC(=O)[C@H](CC23CC(C2)C3)NC(=O)[C@H](Cc2ccc(C34CC(C(=O)O)(C3)C4)cc2)NC(=O)[C@H]2C[C@@H](Cc3ccc(F)cc3)CN2C(=O)CNC(=O)[C@H](CCN)NC(=O)[C@H](CCC(N)=O)NC(=O)[C@H](Cc2cncnc2)NC(=O)C(C)(C)NC(=O)[C@H](Cc2c[nH]c3ccccc23)NC(=O)[C@H](CCC(=O)O)NC(=O)C(C)(C)NC1=O` [Example 99] (cyclo([Aib]EW[Aib][Ala(pyrimidin-5-yl)]Q[Dab]G[dPro(4R-Bzl(4-F))][X35][Ala(1-bicyclo(1.1.1)pentyl)][Phe(4-COOH)]G[Pro(cis-4-F)][Trp(βS-Me,4-F)])), the IC50 worked out at 0.031 nM.

In general, IC50 refers to the point on the concentration scale where inhibition reaches its midpoint.
